# Experimental data as given in ChEMBL document CHEMBL1133290, “Quantitative structure-intestinal permeability relationship of benzamidine analogue thrombin inhibitor” (2000).
# Organism: Rattus norvegicus
# Test: Everted sac permeability (ESA) of rat small intestine, after addition of thrombin inhibitor
# Type: functional
row,SMILES,Log ESA
1,CC(=O)N1CCN(C(=O)C(Cc2cccc(C(=N)N)c2)NS(=O)(=O)NCc2ccc(CO)cc2)CC1 (stereo unspecified),-0.836
2,CC(=O)N1CCN(C(=O)C(Cc2cccc(C(=N)N)c2)NS(=O)(=O)NCCc2ccc3ccccc3c2)CC1 (stereo unspecified),-1.032
3,COc1cccc(CNS(=O)(=O)NC(Cc2cccc(C(=N)N)c2)C(=O)N2Cc3ccccc3C2C(=O)O)c1OC (stereo unspecified),-0.879
4,CC(=O)N1CCN(C(=O)C(Cc2cccc(C(=N)N)c2)NS(=O)(=O)NCc2cc(Br)cc3ccccc23)CC1 (stereo unspecified),-1.367
5,CC(=O)N1CCN(C(=O)C(Cc2cccc(C(=N)N)c2)NS(=O)(=O)NCCc2ccc3c(c2)OCCO3)CC1 (stereo unspecified),-0.654
6,CC(=O)N1CCN(C(=O)C(Cc2cccc(C(=N)N)c2)NS(=O)(=O)NCC2CCCCO2)CC1 (stereo unspecified),-0.708
7,CC(=O)N1CCN(C(=O)C(Cc2cccc(C(=N)N)c2)NS(=O)(=O)NCC(C)c2ccccc2)CC1 (stereo unspecified),-0.889
8,COc1cccc(CNS(=O)(=O)NC(Cc2cccc(C(=N)N)c2)C(=O)N2CCC(C)CC2C(=O)O)c1OC (stereo unspecified),-1
9,CC(=O)N1CCN(C(=O)C(Cc2cccc(C(=N)N)c2)NS(=O)(=O)NCc2ccccc2)CC1 (stereo unspecified),-0.81
10,CCOc1ccccc1CNS(=O)(=O)NC(Cc1cccc(C(=N)N)c1)C(=O)N1CCN(C(C)=O)CC1 (stereo unspecified),-0.876
11,CC(=O)N1CCN(C(=O)C(Cc2cccc(C(=N)N)c2)NS(=O)(=O)NCC2CCCN2Cc2ccccc2)CC1 (stereo unspecified),-0.963
12,COc1cccc(CNS(=O)(=O)NC(Cc2cccc(C(=N)N)c2)C(=O)N2CCN(C(C)=O)CC2)c1 (stereo unspecified),-0.804
13,COc1ccc(CNS(=O)(=O)NC(Cc2cccc(C(=N)N)c2)C(=O)N2CCN(C(C)=O)CC2)cc1OC (stereo unspecified),-0.633
14,CC(=O)N1CCN(C(=O)C(Cc2cccc(C(=N)N)c2)NS(=O)(=O)NCCc2cccc([N+](=O)[O-])c2)CC1 (stereo unspecified),-0.688
15,COc1cc(CNS(=O)(=O)NC(Cc2cccc(C(=N)N)c2)C(=O)N2CCN(C(C)=O)CC2)ccc1[N+](=O)[O-] (stereo unspecified),-0.559
16,CC(=O)N1CCN(C(=O)C(Cc2cccc(C(=N)N)c2)NS(=O)(=O)NCc2c(F)c(F)c(F)c(F)c2F)CC1 (stereo unspecified),-0.65
17,CC(=O)N1CCN(C(=O)C(Cc2cccc(C(=N)N)c2)NS(=O)(=O)NCC(C)(c2ccccc2)c2ccccc2)CC1 (stereo unspecified),-1.456
18,CC(=O)N1CCN(C(=O)C(Cc2cccc(C(=N)N)c2)NS(=O)(=O)NCc2ccc3ccccc3c2)CC1 (stereo unspecified),-0.932
19,COc1cccc(CNS(=O)(=O)NC(Cc2cccc(C(=N)N)c2)C(=O)N2CCN(C(C)=O)CC2)c1O (stereo unspecified),-0.833
20,CCOc1c(CNS(=O)(=O)NC(Cc2cccc(C(=N)N)c2)C(=O)N2CCN(C(C)=O)CC2)sc2ccccc12 (stereo unspecified),-0.983
21,CNC1CCN(C(=O)C(Cc2cccc(C(=N)N)c2)NS(=O)(=O)NCc2cccc(OC)c2OC)CC1 (stereo unspecified),-0.686
22,COc1ccc(CNS(=O)(=O)NC(Cc2cccc(C(=N)N)c2)C(=O)N2CCN(C(C)=O)CC2)c(OC)c1 (stereo unspecified),-0.602
23,CC(=O)N1CCN(C(=O)C(Cc2cccc(C(=N)N)c2)NS(=O)(=O)NCCc2cc3c(cc2[N+](=O)[O-])OCO3)CC1 (stereo unspecified),-0.564
24,CC(=O)N1CCN(C(=O)C(Cc2cccc(C(=N)N)c2)NS(=O)(=O)NCc2cccc3cc(O)ccc23)CC1 (stereo unspecified),-0.59
25,CC(=O)N1CCN(C(=O)C(Cc2cccc(C(=N)N)c2)NS(=O)(=O)NCCc2nccc3ccccc23)CC1 (stereo unspecified),-0.635
26,CC(=O)N1CCN(C(=O)C(Cc2cccc(C(=N)N)c2)NS(=O)(=O)NCCc2ccc3c(c2)OCO3)CC1 (stereo unspecified),-0.636

row,SMILES,Log ESA
1,COc1ccccc1CNS(=O)(=O)NC(Cc1cccc(C(=N)N)c1)C(=O)N1CCN(C(C)=O)CC1 (stereo unspecified),-0.815
2,CC(=O)N1CCN(C(=O)C(Cc2cccc(C(=N)N)c2)NS(=O)(=O)NCCc2cccc(N)c2)CC1 (stereo unspecified),-0.75
3,CC(=O)N1CCN(C(=O)C(Cc2cccc(C(=N)N)c2)NS(=O)(=O)NCCOC2CCCCC2)CC1 (stereo unspecified),-0.708
4,COc1ccc2c(CNS(=O)(=O)NC(Cc3cccc(C(=N)N)c3)C(=O)N3CCN(C(C)=O)CC3)cccc2c1 (stereo unspecified),-0.86
5,CC(=O)N1CCN(C(=O)C(Cc2cccc(C(=N)N)c2)NS(=O)(=O)NCC2CNc3ccccc3C2)CC1 (stereo unspecified),-0.674
6,CC(=O)N1CCN(C(=O)C(Cc2cccc(C(=N)N)c2)NS(=O)(=O)NCc2ccc(Cl)cc2[N+](=O)[O-])CC1 (stereo unspecified),-0.67
7,CC(=O)N1CCN(C(=O)C(Cc2cccc(C(=N)N)c2)NS(=O)(=O)NCCc2cccc3ncccc23)CC1 (stereo unspecified),-0.686
8,CC(=O)N1CCN(C(=O)C(Cc2cccc(C(=N)N)c2)NS(=O)(=O)NCc2ccccc2O)CC1 (stereo unspecified),-0.514
9,CC(=O)N1CCN(C(=O)C(Cc2cccc(C(=N)N)c2)NS(=O)(=O)NCCCc2ccccc2C(=O)N2CCCC2)CC1 (stereo unspecified),-1.027
10,CC(=O)N1CCN(C(=O)C(Cc2cccc(C(=N)N)c2)NS(=O)(=O)NCc2cc(C)c(C)c(C)c2)CC1 (stereo unspecified),-0.818
11,CC(=O)N1CCN(C(=O)C(Cc2cccc(C(=N)N)c2)NS(=O)(=O)NCc2cccc(Oc3ccccc3)c2)CC1 (stereo unspecified),-1.149
12,COc1cccc(CNS(=O)(=O)NC(Cc2cccc(C(=N)N)c2)C(=O)N2CCN(CCO)CC2)c1OC (stereo unspecified),-0.796
13,CC(=O)N1CCN(C(=O)C(Cc2cccc(C(=N)N)c2)NS(=O)(=O)NCC2COc3ccccc3O2)CC1 (stereo unspecified),-0.726
14,CC(=O)N1CCN(C(=O)C(Cc2cccc(C(=N)N)c2)NS(=O)(=O)NCc2cccc3ccccc23)CC1 (stereo unspecified),-0.842
15,CC(=O)N1CCN(C(=O)C(Cc2cccc(C(=N)N)c2)NS(=O)(=O)NCC(c2ccccc2)c2ccccc2)CC1 (stereo unspecified),-1.092
16,CC(=O)N1CCN(C(=O)C(Cc2cccc(C(=N)N)c2)NS(=O)(=O)NCc2ccc(-c3ccccc3)cc2)CC1 (stereo unspecified),-1.174
17,CC(=O)N1CCN(C(=O)C(Cc2cccc(C(=N)N)c2)NS(=O)(=O)NCc2ccc(CCc3ccccc3)cc2)CC1 (stereo unspecified),-1.252
18,CC(=O)N1CCN(C(=O)C(Cc2cccc(C(=N)N)c2)NS(=O)(=O)NCc2c[nH]c3ccccc23)CC1 (stereo unspecified),-0.914
19,CC(=O)N1CCN(C(=O)C(Cc2cccc(C(=N)N)c2)NS(=O)(=O)NCCc2cccc3ccccc23)CC1 (stereo unspecified),-1.114
20,CC(=O)N1CCN(C(=O)C(Cc2cccc(C(=N)N)c2)NS(=O)(=O)NCc2ccccc2-c2ccccc2)CC1 (stereo in doubt; 5),-1.071
21,CC(CNS(=O)(=O)NC(Cc1cccc(C(=N)N)c1)C(=O)N1CCCC(C(=O)O)C1)c1ccccc1 (stereo in doubt; 9),-0.762
22,N=C(N)c1cccc(CC(NS(=O)(=O)NCc2cccc3ccccc23)C(=O)N2CCCC(C(=O)O)C2)c1 (stereo in doubt; 10),-0.752
23,CC(CNS(=O)(=O)NC(Cc1cccc(C(=N)N)c1)C(=O)N1CCCC(C(=O)O)C1)c1ccccc1 (stereo in doubt; 11),-0.759
24,N=C(N)c1cccc(CC(NS(=O)(=O)NCc2cccc3ccccc23)C(=O)N2CCCC(C(=O)O)C2)c1 (stereo in doubt; 12),-0.893
25,CC(=O)N1CCN(C(=O)C(Cc2cccc(C(=N)N)c2)NS(=O)(=O)NCc2ccccc2-c2ccccc2)CC1 (stereo in doubt; 20),-0.987
